# Publication PMC4207540 (Journal of Medicinal Chemistry, 2014)
# Legend:
# BXD-4687 = assay type: cell-based, human
# BXD-3752 = assay type: cell-based, human
# WI-38 fibroblast cells = assay: Cytotoxicity assay; assay type: cell-based
# IDH1(R132H) = IDH1(R132H) (Homo sapiens, UniProt O75874, R132H); conditions: for fold less active than compound 2 against IDH1(R132H): relative to compound 2
# WT IDH1 [1] = molecular target: T1, WT IDH1 (Homo sapiens, UniProt O75874)
# [2] = tested on: breast cancer and leukemia cells; conditions: cited from earlier work
# HT1080 cells = assay: D2HG production inhibition in HT1080 cells; conditions: Homo sapiens, HT-1080, 48 h, read-out: IC50 for inhibition of D2HG
# WT IDH1 [3] = molecular target: T1, WT IDH1; assay: biochemical
# T1 sequence (O75874 whole entry): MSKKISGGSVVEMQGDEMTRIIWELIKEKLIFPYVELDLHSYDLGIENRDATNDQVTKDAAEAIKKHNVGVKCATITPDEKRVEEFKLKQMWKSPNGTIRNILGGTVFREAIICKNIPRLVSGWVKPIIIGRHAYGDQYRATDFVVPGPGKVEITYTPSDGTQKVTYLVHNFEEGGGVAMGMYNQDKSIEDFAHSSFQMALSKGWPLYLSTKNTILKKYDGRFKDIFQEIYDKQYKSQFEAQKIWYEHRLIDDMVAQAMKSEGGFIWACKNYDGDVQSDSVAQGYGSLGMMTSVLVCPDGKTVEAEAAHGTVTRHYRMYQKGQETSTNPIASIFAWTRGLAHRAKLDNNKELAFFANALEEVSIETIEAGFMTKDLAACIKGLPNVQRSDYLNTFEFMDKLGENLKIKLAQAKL
# Chain of IDH1(R132H) (O75874 whole entry R132H): as the sequence (O75874 whole entry) above, with R132H counted along it
structure (smiles),measurement,setting,value
Cc1ccccc1C(C(=O)NC1CCCCC1)N(C(=O)Cn1ccnc1C)c1cccc(F)c1 (stereo not drawn) [Compound 1],"activity against BXD-4687, in words",BXD-4687,no activity
same,"activity against BXD-3752, in words",BXD-3752,no activity
same,"activity against WI-38, in words",WI-38 fibroblast cells,no activity
Cc1cc(Cc2ccccc2)n(O)c(=O)c1 [Compound 2],EC50,"WI-38 fibroblast cells; Homo sapiens, WI-38, 48 h, read-out: EC50 against WI-38",> 50 µM
O=c1ccc(-c2ccccc2)cn1O [Compound 5],"inhibitory activity against IDH1(R132H), in words",IDH1(R132H),very weak activity
O=c1cccc(Cc2ccccc2)n1O [Compound 7],"inhibitory activity against WT IDH1, in words",WT IDH1 [1],do not inhibit the enzyme
"Cc1cc(C2CCCCC2)n(O)c(=O)c1 [Compound 9, Ciclopirox, reference compound]","inhibitory activity against IDH1(R132H), in words",IDH1(R132H),inactive
same,antiproliferative activity,[2],low micromolar
O=c1ccc(CCc2ccccc2)cn1O [Compound 10],"inhibitory activity against IDH1(R132H), in words",IDH1(R132H),lose the inhibitory activity
O=c1ccc(CCCc2ccccc2)cn1O [Compound 11],"inhibitory activity against IDH1(R132H), in words",IDH1(R132H),lose the inhibitory activity
O=c1cccc(-c2ccccc2)n1O [Compound 15],"inhibitory activity against IDH1(R132H), in words",IDH1(R132H),inactive
CC(c1ccccc1)c1cccc(=O)n1O (stereo not drawn) [Compound 16],"inhibitory activity against IDH1(R132H), in words",IDH1(R132H),inactive
Cc1cc(COc2ccccc2)n(O)c(=O)c1 [Compound 19],fold less active than compound 2 against IDH1(R132H),IDH1(R132H),~4 fold
Cc1cc(C)n(O)c(=O)c1 [Compound 20],"inhibitory activity against IDH1(R132H), in words",IDH1(R132H),inactive
O=c1ccc(Cc2ccccc2)c[nH]1 [Compound 21],"inhibitory activity against IDH1(R132H), in words",IDH1(R132H),lack of activity
O=c1ccn(O)c(=O)n1Cc1ccccc1 [Compound 25],"inhibitory activity against IDH1(R132H), in words",IDH1(R132H),lack of activity
O=c1n(O)ccn1Cc1ccccc1 [Compound 26],"inhibitory activity against IDH1(R132H), in words",IDH1(R132H),lack of activity
Cc1cc(Cc2ccccc2)n(N)c(=O)c1 [Compound 27],fold less active than compound 2 against IDH1(R132H),IDH1(R132H),20 fold
Cc1cc(Cc2ccccc2)oc(=O)c1 [Compound 28],"inhibitory activity against IDH1(R132H), in words",IDH1(R132H),inactive
Cc1cc(Cc2ccccc2)oc(=S)c1 [Compound 29],"inhibitory activity against IDH1(R132H), in words",IDH1(R132H),inactive
Cc1ccn(O)c(=O)c1Cc1ccccc1 [Compound 30],fold less active than compound 2 against IDH1(R132H),IDH1(R132H),50 fold
CC(C)c1cc(Cc2ccccc2)n(O)c(=O)c1 [Compound 33],"inhibitory activity against WT IDH1, in words",WT IDH1 [1],do not inhibit the enzyme
same,IC50,HT1080 cells,> 30 µM
O=c1cc(O)cc(Cc2ccccc2)n1O [Compound 34],"inhibitory activity against WT IDH1, in words",WT IDH1 [1],do not inhibit the enzyme
same,Ki,WT IDH1 [3],> 30 µM
same,IC50,HT1080 cells,9.7 ± 1.8 µM
COc1cccc(Cc2cc(C)cc(=O)n2O)c1 [Compound 39],"inhibitory activity against WT IDH1, in words",WT IDH1 [1],do not inhibit the enzyme
Cc1cc(Cc2cccc(O)c2)n(O)c(=O)c1 [Compound 40],"inhibitory activity against WT IDH1, in words",WT IDH1 [1],do not inhibit the enzyme
COc1ccccc1Cc1cc(C)cc(=O)n1O [Compound 41],fold less active than compound 2 against IDH1(R132H),IDH1(R132H),~2 fold
Cc1cc(Cc2ccccc2O)n(O)c(=O)c1 [Compound 42],fold less active than compound 2 against IDH1(R132H),IDH1(R132H),~2 fold
Cc1cc(Cc2cccc(F)c2)n(O)c(=O)c1 [Compound 43],fold less active than compound 2 against IDH1(R132H),IDH1(R132H),~10 fold
Cc1cc(Cc2c(F)c(F)c(F)c(F)c2F)n(O)c(=O)c1 [Compound 44],fold less active than compound 2 against IDH1(R132H),IDH1(R132H),~10 fold
COc1ccc(-c2ccc(Cc3cc(C)cc(=O)n3O)cc2)cc1 [Compound 58],"selectivity for BT-142 over glioma cells without IDH1 mutation (BXD-4687, -3752)",BT-142 glioma cells,> 10 fold
